For experiment [1], the target named is Caspase-7 (Homo sapiens, UniProt P55210). Briefly: human caspase-7 inhibitors, dose response, selectivity assay for caspase-6 inhibitor project, biochemical, DEVD-R110 fluorescence, cherry-pick (AID 743295). The format is […].
Experiment [2] has as its target T1, Apoptotic protease-activating factor 1 (Homo sapiens, UniProt O14727).
T1 sequence (O14727 whole entry): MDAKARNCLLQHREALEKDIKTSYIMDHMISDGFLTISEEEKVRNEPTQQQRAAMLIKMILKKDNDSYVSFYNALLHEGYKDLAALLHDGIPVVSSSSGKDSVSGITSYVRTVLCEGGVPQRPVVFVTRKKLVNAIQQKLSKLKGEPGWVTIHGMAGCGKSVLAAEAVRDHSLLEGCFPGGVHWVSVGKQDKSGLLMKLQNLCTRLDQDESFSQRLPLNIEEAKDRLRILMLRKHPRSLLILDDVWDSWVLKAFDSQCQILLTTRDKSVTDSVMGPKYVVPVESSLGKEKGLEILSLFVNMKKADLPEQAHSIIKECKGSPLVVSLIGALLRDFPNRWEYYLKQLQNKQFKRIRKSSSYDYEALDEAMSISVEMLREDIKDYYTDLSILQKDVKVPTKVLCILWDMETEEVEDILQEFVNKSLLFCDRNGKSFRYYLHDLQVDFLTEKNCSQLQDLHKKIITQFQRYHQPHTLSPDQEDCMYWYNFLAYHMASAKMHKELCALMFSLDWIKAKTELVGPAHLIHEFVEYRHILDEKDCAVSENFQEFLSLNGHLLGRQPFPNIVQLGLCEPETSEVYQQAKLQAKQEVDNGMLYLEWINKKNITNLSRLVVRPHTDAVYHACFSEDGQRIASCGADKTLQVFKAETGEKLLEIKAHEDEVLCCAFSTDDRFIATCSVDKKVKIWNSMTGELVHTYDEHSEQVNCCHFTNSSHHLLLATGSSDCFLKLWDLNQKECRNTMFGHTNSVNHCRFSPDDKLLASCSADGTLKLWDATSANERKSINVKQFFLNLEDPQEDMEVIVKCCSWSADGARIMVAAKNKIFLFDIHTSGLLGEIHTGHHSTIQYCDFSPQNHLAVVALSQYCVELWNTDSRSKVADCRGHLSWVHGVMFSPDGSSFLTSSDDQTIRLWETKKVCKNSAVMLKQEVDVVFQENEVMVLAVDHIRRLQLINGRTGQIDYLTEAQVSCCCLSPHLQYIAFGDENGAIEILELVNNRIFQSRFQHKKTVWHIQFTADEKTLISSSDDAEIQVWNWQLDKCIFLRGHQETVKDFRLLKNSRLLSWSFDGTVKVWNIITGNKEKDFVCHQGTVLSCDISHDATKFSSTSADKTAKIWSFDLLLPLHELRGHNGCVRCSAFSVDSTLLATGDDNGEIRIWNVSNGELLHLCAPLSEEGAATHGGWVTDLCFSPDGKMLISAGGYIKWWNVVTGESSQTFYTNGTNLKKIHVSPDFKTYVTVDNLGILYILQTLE
It is filed as functional.

In experiment [3] the target is T2, Sentrin-specific protease 8 (Homo sapiens, UniProt Q96LD8).
T2 sequence (Q96LD8 whole entry): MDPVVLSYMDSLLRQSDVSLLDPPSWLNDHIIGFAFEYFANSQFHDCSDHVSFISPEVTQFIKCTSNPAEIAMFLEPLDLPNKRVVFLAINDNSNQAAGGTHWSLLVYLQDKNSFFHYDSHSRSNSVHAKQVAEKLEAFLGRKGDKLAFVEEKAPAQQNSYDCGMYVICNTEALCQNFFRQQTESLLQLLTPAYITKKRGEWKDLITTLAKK
Briefly: SENP8 protease inhibitors, SAR follow-up, biochemical, luminescence (AID 504501). It is filed as functional.

Experiment [4] deals with Megakaryocyte-associated tyrosine-protein kinase (Homo sapiens, UniProt P42679). It is filed as functional.
Sequence of Megakaryocyte-associated tyrosine-protein kinase (P42679 whole entry): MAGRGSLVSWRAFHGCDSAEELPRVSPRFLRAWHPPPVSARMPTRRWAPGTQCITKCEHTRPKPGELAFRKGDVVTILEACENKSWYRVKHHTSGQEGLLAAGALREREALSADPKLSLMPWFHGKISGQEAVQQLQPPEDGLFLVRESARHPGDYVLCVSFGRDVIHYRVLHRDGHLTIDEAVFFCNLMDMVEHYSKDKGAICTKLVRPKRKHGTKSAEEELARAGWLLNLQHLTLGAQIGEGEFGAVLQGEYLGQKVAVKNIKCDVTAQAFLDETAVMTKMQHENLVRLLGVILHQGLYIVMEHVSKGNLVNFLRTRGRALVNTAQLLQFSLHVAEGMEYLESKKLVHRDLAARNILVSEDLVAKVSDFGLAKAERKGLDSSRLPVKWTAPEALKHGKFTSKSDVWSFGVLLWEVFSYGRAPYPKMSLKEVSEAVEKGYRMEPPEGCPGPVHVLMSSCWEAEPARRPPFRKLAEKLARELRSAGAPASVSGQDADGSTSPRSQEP
Experiment [5] addresses Serine/threonine-protein kinase Chk2 (Homo sapiens, UniProt O96017). It is filed as functional.
Experiment [6] addresses SRSF protein kinase 1 (Homo sapiens, UniProt Q96SB4). It is filed as functional.
The target in experiment [7] is Fibroblast growth factor receptor 1 (Homo sapiens, UniProt P11362). It is filed as functional.
Experiment [8] addresses Serine/threonine-protein kinase pim-3 (Homo sapiens, UniProt Q86V86). It is filed as functional.
Experiment [9] concerns the target Glycogen synthase kinase-3 alpha (Homo sapiens, UniProt P49840). The format is functional.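 Further: GSK3A result taken from a broad kinome-wide kinase panel.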
For experiment [10], the target named is Receptor-type tyrosine-protein kinase FLT3 (Homo sapiens, UniProt P36888). The format is functional.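 Further: FLT3 was tested as one member of a kinome-wide kinase panel.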
Experiment [11] addresses MAP kinase-interacting serine/threonine-protein kinase 2 (Homo sapiens, UniProt Q9HBH9). The format is functional.
Experiment [12] has as its target Misshapen-like kinase 1 (Homo sapiens, UniProt Q8N4C8). It is filed as functional.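 Further: kinome panel screen with MINK as the panel member.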
Experiment [13] addresses cAMP-dependent protein kinase catalytic subunit PRKX (Homo sapiens, UniProt P51817). The format is functional.
Experiment [14] has as its target Interleukin-1 receptor-associated kinase 4 (Homo sapiens, UniProt Q9NWZ3). The format is functional.
Experiment [15] has as its target Vascular endothelial growth factor receptor 3 (Homo sapiens, UniProt P35916). It is filed as functional.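 Further: value from a kinome-wide profiling panel, with FLT4 as the panel member.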
In experiment [16] the target is Serine/threonine-protein kinase pim-2 (Homo sapiens, UniProt Q9P1W9). The format is functional.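 Further: value comes from a broad kinase panel profiling study in which PIM2 was one of the panel members.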
Sequence of Serine/threonine-protein kinase pim-2 (Q9P1W9 whole entry): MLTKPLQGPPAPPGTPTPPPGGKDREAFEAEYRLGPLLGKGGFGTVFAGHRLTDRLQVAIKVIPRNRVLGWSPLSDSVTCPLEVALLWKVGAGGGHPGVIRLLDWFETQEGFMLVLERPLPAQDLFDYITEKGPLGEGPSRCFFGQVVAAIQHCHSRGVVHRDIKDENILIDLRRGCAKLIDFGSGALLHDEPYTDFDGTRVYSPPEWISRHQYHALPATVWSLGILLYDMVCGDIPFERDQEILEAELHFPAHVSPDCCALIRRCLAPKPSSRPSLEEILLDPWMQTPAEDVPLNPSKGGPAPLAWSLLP
Experiment [17] has as its target Serine/threonine-protein kinase PLK1 (Homo sapiens, UniProt P53350). It is filed as functional.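 Further: PLK1 measured as one member of a kinome-wide profiling panel.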
Experiment [18] deals with Glycogen synthase kinase-3 beta (Homo sapiens, UniProt P49841). It is filed as functional.
Sequence of Glycogen synthase kinase-3 beta (P49841 whole entry): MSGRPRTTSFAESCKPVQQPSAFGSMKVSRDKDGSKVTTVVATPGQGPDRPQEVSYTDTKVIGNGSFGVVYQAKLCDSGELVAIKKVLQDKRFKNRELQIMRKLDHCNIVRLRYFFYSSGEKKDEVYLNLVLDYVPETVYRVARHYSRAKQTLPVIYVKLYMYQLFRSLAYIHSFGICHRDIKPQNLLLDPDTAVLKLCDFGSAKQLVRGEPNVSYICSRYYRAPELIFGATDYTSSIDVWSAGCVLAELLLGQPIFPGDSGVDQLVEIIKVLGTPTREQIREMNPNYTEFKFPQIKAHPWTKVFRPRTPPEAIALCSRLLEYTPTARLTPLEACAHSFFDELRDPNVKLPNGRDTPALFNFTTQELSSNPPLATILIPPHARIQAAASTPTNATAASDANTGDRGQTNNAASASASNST
The target of experiment [19] is Serine/threonine-protein kinase MRCK alpha (Homo sapiens, UniProt Q5VT25). The format is functional.
Sequence of Serine/threonine-protein kinase MRCK alpha (Q5VT25 whole entry): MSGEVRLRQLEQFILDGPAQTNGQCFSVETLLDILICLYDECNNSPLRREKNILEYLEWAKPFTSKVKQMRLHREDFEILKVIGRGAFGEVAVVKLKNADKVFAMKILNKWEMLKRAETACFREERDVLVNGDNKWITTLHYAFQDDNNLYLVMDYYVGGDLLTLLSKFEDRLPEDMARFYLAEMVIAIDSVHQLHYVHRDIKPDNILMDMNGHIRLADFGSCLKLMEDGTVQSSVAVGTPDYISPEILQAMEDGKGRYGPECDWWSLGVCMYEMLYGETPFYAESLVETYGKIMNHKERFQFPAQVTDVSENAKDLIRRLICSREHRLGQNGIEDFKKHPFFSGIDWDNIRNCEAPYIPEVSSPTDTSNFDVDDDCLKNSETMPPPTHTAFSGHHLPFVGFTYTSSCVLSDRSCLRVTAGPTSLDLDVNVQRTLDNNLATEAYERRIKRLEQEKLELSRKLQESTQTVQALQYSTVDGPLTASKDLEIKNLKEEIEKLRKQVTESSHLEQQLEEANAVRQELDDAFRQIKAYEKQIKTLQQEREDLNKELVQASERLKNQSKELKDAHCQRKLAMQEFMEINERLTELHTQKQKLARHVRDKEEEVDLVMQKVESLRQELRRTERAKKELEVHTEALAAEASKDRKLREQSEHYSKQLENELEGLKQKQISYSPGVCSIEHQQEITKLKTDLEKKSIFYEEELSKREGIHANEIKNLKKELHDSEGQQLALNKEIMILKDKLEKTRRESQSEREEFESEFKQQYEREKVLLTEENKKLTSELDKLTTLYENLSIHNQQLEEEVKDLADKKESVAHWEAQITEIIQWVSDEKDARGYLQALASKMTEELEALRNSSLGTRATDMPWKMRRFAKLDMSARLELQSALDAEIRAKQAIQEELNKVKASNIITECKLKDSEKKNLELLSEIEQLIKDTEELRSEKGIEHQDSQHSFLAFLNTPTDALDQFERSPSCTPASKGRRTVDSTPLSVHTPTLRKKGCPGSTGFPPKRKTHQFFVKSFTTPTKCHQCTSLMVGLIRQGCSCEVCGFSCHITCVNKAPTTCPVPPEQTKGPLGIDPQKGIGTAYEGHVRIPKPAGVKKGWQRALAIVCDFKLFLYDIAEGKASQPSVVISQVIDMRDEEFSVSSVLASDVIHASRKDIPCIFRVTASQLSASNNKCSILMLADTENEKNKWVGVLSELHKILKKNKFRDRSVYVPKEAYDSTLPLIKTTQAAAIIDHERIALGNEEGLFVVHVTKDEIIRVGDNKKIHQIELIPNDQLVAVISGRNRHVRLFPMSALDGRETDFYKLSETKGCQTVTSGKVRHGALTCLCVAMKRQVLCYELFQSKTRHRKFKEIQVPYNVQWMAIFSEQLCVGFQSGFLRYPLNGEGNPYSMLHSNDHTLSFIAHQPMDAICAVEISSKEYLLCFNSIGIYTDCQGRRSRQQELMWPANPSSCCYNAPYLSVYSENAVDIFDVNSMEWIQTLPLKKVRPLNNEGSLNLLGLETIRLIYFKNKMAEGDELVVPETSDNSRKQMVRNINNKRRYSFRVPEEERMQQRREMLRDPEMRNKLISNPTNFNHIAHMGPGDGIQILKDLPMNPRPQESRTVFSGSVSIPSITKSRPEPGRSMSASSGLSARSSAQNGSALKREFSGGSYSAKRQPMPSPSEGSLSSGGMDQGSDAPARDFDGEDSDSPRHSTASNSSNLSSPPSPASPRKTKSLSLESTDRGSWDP

The source made the active and inactive calls.

Sequence of SRSF protein kinase 1 (Q96SB4 whole entry): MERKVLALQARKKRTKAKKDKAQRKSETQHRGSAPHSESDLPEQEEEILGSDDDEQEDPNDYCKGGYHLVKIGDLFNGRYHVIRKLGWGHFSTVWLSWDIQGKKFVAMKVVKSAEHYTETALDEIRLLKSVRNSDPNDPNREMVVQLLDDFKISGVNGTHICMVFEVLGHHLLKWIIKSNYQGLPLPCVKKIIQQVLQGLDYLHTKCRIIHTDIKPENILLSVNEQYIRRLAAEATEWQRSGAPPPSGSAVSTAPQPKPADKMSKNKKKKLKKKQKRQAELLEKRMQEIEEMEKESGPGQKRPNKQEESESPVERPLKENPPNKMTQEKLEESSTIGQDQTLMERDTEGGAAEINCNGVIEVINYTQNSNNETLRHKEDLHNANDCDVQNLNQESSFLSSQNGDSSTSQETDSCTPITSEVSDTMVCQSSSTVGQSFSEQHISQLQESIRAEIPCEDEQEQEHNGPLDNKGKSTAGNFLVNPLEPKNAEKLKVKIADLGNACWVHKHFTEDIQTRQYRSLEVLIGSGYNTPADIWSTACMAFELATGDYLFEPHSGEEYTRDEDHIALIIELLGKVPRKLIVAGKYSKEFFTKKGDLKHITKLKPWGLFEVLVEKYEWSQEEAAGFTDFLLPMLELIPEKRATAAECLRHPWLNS
Sequence of Misshapen-like kinase 1 (Q8N4C8 whole entry): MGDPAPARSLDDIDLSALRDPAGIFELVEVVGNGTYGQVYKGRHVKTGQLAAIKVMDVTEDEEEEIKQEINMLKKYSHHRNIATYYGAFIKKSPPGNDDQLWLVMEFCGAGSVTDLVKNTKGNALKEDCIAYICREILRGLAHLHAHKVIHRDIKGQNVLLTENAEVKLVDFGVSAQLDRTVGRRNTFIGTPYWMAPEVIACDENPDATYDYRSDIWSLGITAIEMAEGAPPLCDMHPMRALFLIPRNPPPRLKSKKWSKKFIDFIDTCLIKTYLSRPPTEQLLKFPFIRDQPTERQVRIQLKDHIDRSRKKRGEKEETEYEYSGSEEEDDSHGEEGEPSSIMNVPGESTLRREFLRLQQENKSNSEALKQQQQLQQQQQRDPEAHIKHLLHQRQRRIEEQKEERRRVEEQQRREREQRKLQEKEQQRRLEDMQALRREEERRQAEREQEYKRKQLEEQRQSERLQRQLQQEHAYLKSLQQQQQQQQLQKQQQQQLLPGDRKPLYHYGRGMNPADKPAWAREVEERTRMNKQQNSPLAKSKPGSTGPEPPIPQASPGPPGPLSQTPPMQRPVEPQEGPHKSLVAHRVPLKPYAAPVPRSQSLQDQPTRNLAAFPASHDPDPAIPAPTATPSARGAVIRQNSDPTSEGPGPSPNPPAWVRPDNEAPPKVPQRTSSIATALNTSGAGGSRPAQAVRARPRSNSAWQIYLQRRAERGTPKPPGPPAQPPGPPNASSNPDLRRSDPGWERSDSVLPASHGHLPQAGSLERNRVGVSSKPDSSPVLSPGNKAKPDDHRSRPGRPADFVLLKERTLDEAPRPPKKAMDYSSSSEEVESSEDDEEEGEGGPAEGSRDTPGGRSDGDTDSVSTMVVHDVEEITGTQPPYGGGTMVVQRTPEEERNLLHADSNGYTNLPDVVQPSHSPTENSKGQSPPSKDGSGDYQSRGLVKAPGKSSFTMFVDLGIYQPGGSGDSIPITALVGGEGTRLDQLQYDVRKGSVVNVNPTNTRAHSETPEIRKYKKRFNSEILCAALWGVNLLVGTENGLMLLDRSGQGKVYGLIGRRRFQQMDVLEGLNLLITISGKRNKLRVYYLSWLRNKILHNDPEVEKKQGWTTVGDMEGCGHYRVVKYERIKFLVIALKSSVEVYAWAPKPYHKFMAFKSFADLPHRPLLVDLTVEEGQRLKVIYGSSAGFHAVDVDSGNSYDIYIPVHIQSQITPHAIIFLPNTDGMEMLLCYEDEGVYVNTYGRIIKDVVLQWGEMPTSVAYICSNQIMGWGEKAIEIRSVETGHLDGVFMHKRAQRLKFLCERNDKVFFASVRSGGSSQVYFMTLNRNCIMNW

Broadly, the AC50 is the concentration at which the activity in the assay is half-maximal. As for `O=C(COC(=O)c1ccc([N+](=O)[O-])s1)Nc1cccc(S(=O)(=O)/N=C2/CCCCCN2)c1`, in [1], the half-maximal activity concentration (AC50) was 14600 nM (active).

The term IC50 denotes the point on the concentration scale where inhibition reaches its midpoint. For the compound `COc1ccc(C(C[N+](=O)[O-])c2c(C)[nH]n(-c3ccccc3)c2=O)cc1` (centres undefined), the IC50 in [2] was 14600 nM (active); in experiment [3], 28100 nM (active).

The Ki is the equilibrium dissociation constant of an inhibitor or competing ligand from its target. Consider `Oc1c2ccccc2c2c3c(cccc13)N=N2` [SP-600125], for which the inhibition constant (Ki) in experiment [4] was 501 nM (active); in [5], 501 nM (active); in [6], > 7940 nM (inactive); in experiment [7], 251 nM (active); in experiment [8], 200 nM (active); in experiment [9], 1260 nM (active). In addition, the Ki in [10] is 50.1 nM (active); in experiment [11], 316 nM (active); in experiment [12], 200 nM (active); in [13] it was > 1580 nM (inactive); in experiment [14], 158 nM (active); in experiment [15], 15.8 nM (active). Moreover, the Ki was 316 nM (active) in experiment [16], > 7940 nM (inactive) in [17], 316 nM (active) in experiment [18] and > 10000 nM (inactive) in [19].

The record behind these values is ChEMBL document CHEMBL1201862, “PubChem BioAssay data set” (2004).
